Reference: US20020055528A1, “Artemisinin analogs having antimalarial, antiproliferative, and antitumor activities and chemoselective methods of making the same” (priority 1999, published 2002)

Key:
Format in all cases: cell-based
[1] = test system: PC-3; assay: NCI 60 cell line screen (SRB), Prostate Cancer
[2] = test system: SF-295; assay: NCI 60 cell line screen (SRB), CNS Cancer
[3] = test system: MB231/ATCC (second line of the wrapped label, with values of its own); assay: NCI 60 cell line screen (SRB), Breast Cancer
[4] = test system: OVCAR-5; assay: NCI 60 cell line screen (SRB), Ovarian Cancer
[5] = test system: NCI-H522; assay: NCI 60 cell line screen (SRB), Non-Small Cell Lung Cancer
[6] = test system: SK-MEL-5; assay: NCI 60 cell line screen (SRB), Melanoma
[7] = test system: SNB-19; assay: NCI 60 cell line screen (SRB), CNS Cancer
[8] = test system: K-562; assay: NCI 60 cell line screen (SRB), Leukemia
[9] = test system: MDA-MB-435; assay: NCI 60 cell line screen (SRB), Breast Cancer
[10] = test system: SR; assay: NCI 60 cell line screen (SRB), Leukemia
[11] = test system: UACC-257; assay: NCI 60 cell line screen (SRB), Melanoma
[12] = test system: NCI-H460; assay: NCI 60 cell line screen (SRB), Non-Small Cell Lung Cancer
[13] = test system: OVCAR-4; assay: NCI 60 cell line screen (SRB), Ovarian Cancer
[14] = test system: NCI-H23; assay: NCI 60 cell line screen (SRB), Non-Small Cell Lung Cancer
[15] = test system: HL-60(TB); assay: NCI 60 cell line screen (SRB), Leukemia
[16] = test system: UACC-62; assay: NCI 60 cell line screen (SRB), Melanoma
[17] = test system: COLO 205; assay: NCI 60 cell line screen (SRB), Colon Cancer
[18] = test system: murine keratinocyte cell line PE; assay: Growth inhibition of PE cells, MTT assay; conditions: 100 nanomolar; compared with calcitriol; FIG. 5
Procedure: To determine the inhibitory effect of the compositions of the present invention on cell proliferation, screening assays were performed on a murine keratinocyte cell line PE. Cell line PE was chosen for its particular sensitivity to the induction of omithine decarboxylase (ODC) activity by the extensively characterized tumor promoter TPA. Cell line PE was derived from a papilloma-induced in female SENCAR mice by a standard skin initiation/promotion protocol, see Yuspa, S. H., et al., Carcinogenesis, 7:949-958 (1986). PE cell culture medium consisted of Eagle's minimal essential medium without calcium chloride (Whittaker Bioproducts, Walkersville, Mass.) supplemented with 8% chelexed fetal calf serum and 1% antibiotic-antimycotic (Gibco BRL) and the addition of CaCI2 to 0.05 mM Ca^++
MTT [3-(4,5-dimethylthiazol-2-yl)-2,5-diphenyltetraxolium bromide] was purchased from Sigma Chemical Co. (St. Louis, Mo.), and TPA was supplied by L.C. Services (Woburn, Mass.). L-[^14C]omithine ([…]) was from Amersham/Searle Corp. (Arlington Heights, Ill.). Chemical solvents used in all assays of biological activity were of the highest grade commercially available.
Growth curves, shown in FIG. 5, for PE cells treated with calcitriol and the C-10 carbon-substituted dimers VII-f, VII-g and VII-h generated by assay for the reduction of the tetrazolium-based compound MTT, see Charmichael, et al., Cancer Res., 47:936-942 (1987). A mitochondrial dehydrogenase reduces MTT to a blue formazan product with an absorbance maximum of 505 nm in DMSO; the number of viable cells can thus be determined spectrophotometrically. PE cells were seeded at a density of 5,000 cells/well in 50 IL of medium into 96-well microtiter plates. Twelve hours later, the medium was removed, and cells were treated with 100 μL of fresh medium into which the appropriate amount of calcitriol or analog dissolved in dimethyl sulfoxide (DMSO) had been added, with the concentration of DMSO held constant at 0.1 %. […] At 24-hour intervals following the initial treatment of the cells with compounds, 0.1 mg (50 μL of a 2 mg/mL solution) of MTT was added to each well. After 4 hours, the MTT was removed and DMSO added to dissolve the blue formazan dye. Using a microtiter plate reader, the A505 was then determined and cell number calculated from blank-subtracted absorbance values.

[19] = test system: DU-145; assay: NCI 60 cell line screen (SRB), Prostate Cancer
[20] = test system: BT-549; assay: NCI 60 cell line screen (SRB), Breast Cancer
[21] = test system: MDA-MB231/ATCC; assay: NCI 60 cell line screen (SRB), Breast Cancer; conditions: MDA- (first line of MDA-MB231/ATCC)
[22] = test system: LOX IMVI; assay: NCI 60 cell line screen (SRB), Melanoma
[23] = test system: RPMI-8226; assay: NCI 60 cell line screen (SRB), Leukemia
[24] = test system: HCC-2998; assay: NCI 60 cell line screen (SRB), Colon Cancer
[25] = test system: NCI-H322M; assay: NCI 60 cell line screen (SRB), Non-Small Cell Lung Cancer

CC1=C(C=Cc2cccc(C=CC3=C(C)C4CCC(C)C5CCC6(C)OOC45C(O3)O6)c2)OC2OC3(C)CCC4C(C)CCC1C24OO3 (stereo not drawn) [VII-g]
Log10TGI ([1]; PG=0): >−4.00 log10M | Log10 GI50 (PG=+50) or LC50 (PG=−50) ([1]; PG=+50): −7.32 log10M | Log10 GI50 (PG=+50) or LC50 (PG=−50) ([1]; Table IV (LC50, PG=−50)): >−4.00 log10M | Log10TGI ([2]; PG=0): >−4.00 log10M | Log10GI50 ([2]; PG=+50): −6.48 log10M | Log10GI50 ([3]; PG=+50): −7.10 log10M | Log10GI50 ([3]; Table IV (LC50, PG=−50)): >−4.00 log10M | Log10TGI ([4]; PG=0): >−4.00 log10M | Log10GI50 ([4]; PG=+50): −6.58 log10M | Log10GI50 ([4]; Table IV (LC50, PG=−50)): >−4.00 log10M | Log10TGI ([5]; PG=0): >−4.00 log10M | Log10GI50 ([5]; PG=+50): −6.99 log10M | Log10GI50 ([5]; Table IV (LC50, PG=−50)): >−4.00 log10M | Log10TGI ([6]; PG=0): −5.16 log10M | Log10 GI50 or LC50 ([6]; PG=+50): −6.71 log10M | Log10 GI50 or LC50 ([6]; Table IV (LC50, PG=−50)): >−4.00 log10M | Log10TGI ([7]; PG=0): >−4.00 log10M | Log10GI50 or Log10LC50 (see condition) ([7]; PG=+50): −6.48 log10M | Log10GI50 or Log10LC50 (see condition) ([7]; Table IV (LC50, PG=−50)): >−4.00 log10M | Log10TGI ([8]; PG=0): −7.31 log10M | Log10GI50 ([8]; PG=+50): −7.31 log10M | Log10GI50 ([8]; Table IV (LC50, PG=−50)): >−4.00 log10M | Log10TGI ([9]; MDA-MB-435, PG=0): >−4.00 log10M | Log10GI50 ([9]; MDA-MB−435, PG=+50): −6.57 log10M | Log10GI50 ([9]; Table IV (LC50, PG=−50), MDA-MB-435): >−4.00 log10M | Log10TGI ([10]; PG=0): −7.42 log10M | Log10GI50 ([10]; PG=+50): −7.42 log10M | Log10GI50 ([10]; Table IV (LC50, PG=−50)): >−4.00 log10M | Log10TGI ([11]; PG=0): −4.58 log10M | Log10 GI50 (PG=+50) or Log10 LC50 (PG=−50) ([11]; PG=+50): −7.09 log10M | Log10 GI50 (PG=+50) or Log10 LC50 (PG=−50) ([11]; Table IV (LC50, PG=−50)): >−4.00 log10M | Log10TGI ([12]; PG=0): >−4.00 log10M | Log10 GI50 or Log10 LC50 ([12]; PG=+50): −5.13 log10M | Log10GI50 ([13]; OVCAR-4, PG=+50): −6.96 log10M | Log10GI50 ([13]; Table IV (LC50, PG=−50), OVCAR−4): >−4.00 log10M | Log10TGI ([14]; PG=0): −4.06 log10M | log10 GI50 or LC50 (see conditions) ([14]; PG=+50): −5.92 log10M | log10 GI50 or LC50 (see conditions) ([14]; Table IV (LC50, PG=−50)): >−4.00 log10M | Log10TGI ([15]; PG=0): −7.20 log10M | Log10GI50 ([15]; PG=+50): −7.20 log10M | Log10GI50 ([15]; Table IV (LC50, PG=−50)): >−4.00 log10M | Log10TGI ([16]; PG=0): >−4.00 log10M | Log10GI50 ([16]; PG=+50): −5.46 log10M | Log10GI50 ([16]; Table IV (LC50, PG=−50)): >−4.00 log10M | Log10TGI ([17]; PG=0): −6.82 log10M | Log10GI50 ([17]; PG=+50): −7.50 log10M | Log10GI50 ([17]; Table IV (LC50, PG=−50)): −4.96 log10M | antiproliferative activity in words [18]: at least as antiproliferative as calcitriol | Log10TGI ([19]; PG=0): >−4.00 log10M | Log10GI50 ([19]; PG=+50): −5.71 log10M | Log10GI50 ([19]; Table IV (LC50, PG=−50)): >−4.00 log10M | Log10GI50 ([20]; PG=+50): −7.51 log10M | Log10GI50 ([20]; Table IV (LC50, PG=−50)): >−4.00 log10M | Log10TGI ([21]; PG=0): −4.74 log10M | Log10 GI50 or LC50 (per conditions) ([21]; PG=+50): −6.07 log10M | Log10 GI50 or LC50 (per conditions) ([21]; Table IV (LC50, PG=−50)): >−4.00 log10M | Log10TGI ([22]; PG=0): −5.06 log10M | Log10GI50 ([22]; PG=+50): −7.07 log10M | Log10GI50 ([22]; Table IV (LC50, PG=−50)): >−4.00 log10M | Log10TGI ([23]; PG=0): −7.25 log10M | Log10GI50 ([23]; PG=+50): −7.25 log10M | Log10GI50 ([23]; Table IV (LC50, PG=−50)): >−4.00 log10M | Log10TGI ([24]; PG=0): >−4.00 log10M | Log10GI50 ([24]; PG=+50): −6.12 log10M | Log10TGI ([25]; PG=0): −4.87 log10M | Log10GI50 ([25]; PG=+50): −7.42 log10M
